Test results as given in PubChem BioAssay (NCI).
Several values for one entry are separate records, joined by “and”; a condition that tells them apart may be missing. Equal entries are not always repeated.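 Following 48 hours of exposure in 96-well plates, responses at five concentrations were used to interpolate endpoints linearly. Abbreviation: GI50, concentration required for 50% inhibition of growth. TGI denotes the concentration required for complete inhibition of growth.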

What was measured:
Assay in all cases: NCI tumour cell line growth inhibition, 48 h
KM12 colon = test system: KM12 colon
MDA-MB-435 = test system: MDA-MB-435
SN12C renal = test system: SN12C renal
SNB-75 CNS = test system: SNB-75 CNS
SK-MEL-2 melanoma = test system: SK-MEL-2 melanoma
UO-31 renal = test system: UO-31 renal
HL-60(TB) leukemia = test system: HL-60(TB) leukemia

SMILES	GI50 (KM12 colon) [µM]	TGI (KM12 colon) [µM]	GI50 (MDA-MB-435) [µM]	TGI (MDA-MB-435) [µM]	GI50 (SN12C renal) [µM]	TGI (SN12C renal) [µM]	GI50 (SNB-75 CNS) [µM]	TGI (SNB-75 CNS) [µM]	GI50 (SK-MEL-2 melanoma) [µM]	TGI (SK-MEL-2 melanoma) [µM]	GI50 (UO-31 renal) [µM]	TGI (UO-31 renal) [µM]	GI50 (HL-60(TB) leukemia) [µM]	TGI (HL-60(TB) leukemia)
C=C1C(=O)O[C@H]2[C@H](OC(C)=O)[C@@H](C)CCCC3(C)OC3CCC3(CO3)[C@H](O)C[C@@H]12 (some centres undefined)	13.6	28.5	9.24	28.6	10.4	24.8	47	> 100	26.3	> 100	14.3	45		
CC1(C)N=C(N)N=C(N)N1c1ccc(OCCCNC(=O)Nc2cccc(S(=O)(=O)F)c2)c(Cl)c1	4.53	> 100	2.14	> 100			2.73	> 100			> 100	> 100	0.441	> 100 µM
Oc1ccc2ccccc2c1N=Nc1cc(Cl)ccc1Cl		> 50		> 50		> 50		23.9		> 50		> 50		> 50 µM
CN(C)CCCSc1ccccc1NC1=C(Cl)C(=O)C(Nc2ccccc2SCCCN(C)C)=C(Cl)C1=O	1.89	4.09	2.06	4.52	1.72	3.18	11.1	23.2	2.3	5.48	1.47	2.79	0.69	2.91 µM
COc1ccc(/C=C2\COc3ccc(O)c(O)c3C2=O)c(OC)c1OC	2.89	10.8	2.21	6.57	2.55	8.95	3.09	86.6	4.7	31.1	1.42	3.02	2.4	6.71 µM
Cc1cc(N2CCCCC2)nc(NC2CCCC(Nc3ccnc4cc(Cl)ccc34)C2)n1 (centres undefined)	1.79	3.52	1.32	2.73			1.39	3.18			1.2	2.48		
CC1(C)N=C(N)N=C(N)N1c1ccc(Cl)cc1	6.68	> 100	1.18	> 100	7.25	> 100	8.16	> 100	> 100	> 100	> 100	> 100	> 100	> 100 µM
CC(C)[C@@](O)(c1ccc2cc(OC(F)F)c(OC(F)F)cc2c1)c1cn[nH]n1	17.5	39.2	16.4	33.3	17.1	35.2	15.1	40.4	17.4	34.3	11.6	26.4	21.9	66.6 µM
CC(C)(C)c1cc(/C=N/NC(=O)c2ccccc2NC(=O)c2cccs2)c(O)c(C(C)(C)C)c1	0.831	> 100	2.46	77.7	1.92	62.8	13.1	> 100	20.2	> 100	0.269	15.7		
COc1ccc(C2CC(c3ccc(Nc4ccnc5cc(Cl)ccc45)cc3)=NN2C=O)cc1 (centres undefined)	16.5	> 100	1.72	5.22	12.6	> 100	> 100	> 100			19.7	> 100	2.23	5.16 µM
COC(=O)c1ccc(/C=C(\c2ccc([N+](=O)[O-])o2)S(=O)(=O)c2ccc(NC(C)=O)cc2)o1		27.8		12.8		1.36		36.2		39.2		18.2		8.69 µM
COc1cc(-c2nc3sc(C)cn3c2/C=C2\C(=O)Nc3ccccc32)c(Br)c(OC)c1OC	17.5	49.5	4.88	23.2	45.4	> 100	22.2	51.5	33.6	> 100	37.1	> 100	29.2	> 100 µM
CC(C)(C)CC(C)(C)c1ccc(O)c(Cc2ccc(Cl)cc2Cl)c1	1.63	3	1.65	3.01	1.47	2.79	1.69	3.08	1.44	2.95	1.5	2.83	2.01	3.72 µM
COC(=O)[C@]12CC[C@@H](C)[C@H](C)[C@@H]1C1=CC[C@@H]3[C@@]4(C)C[C@@H](OC(=O)/C=C/c5ccccc5)[C@H](O)[C@@](C)(CO)[C@@H]4[C@H](O)C[C@@]3(C)[C@]1(C)CC2	2.05	5.36	2.44	6.47	1.83	3.6	2.08	12.9	3.81	15.5	2.56	11.2	2.63	6.51 µM
O=C(O)c1ccc(C(O)(c2ccccc2)c2ccccc2)cc1		> 100		> 100		> 100						> 100		> 100 µM
COc1cc([N+](=O)[O-])c(OC)cc1-c1nc2sc(C)cn2c1/C(N)=N/C(=N)N	2.24	11.1	16.1	> 100	18.9	49.1	> 100	> 100			38.3	> 100	> 100	> 100 µM
COc1cccc(-c2cc(=O)c3cc(N4CCOCC4)ccc3[nH]2)c1	0.0243			0.0256	0.0868	> 100			0.0937		0.0713	> 100		0.0593 µM and 0.0492 µM
C#CC(=O)Nc1cccc2c1cc(C)n2-c1nc2c(c(NCc3ccccc3)n1)CCCC2	0.213	0.546	0.463	1.66	0.0706	0.427	0.141	0.294	1.25	2.92	0.0466	0.124		
COc1cc(CNCCN2C(=O)c3ccc4c5c(ccc(c35)C2=O)C(=O)N(CCNCc2cc(OC)c(OC)c(OC)c2)C4=O)cc(OC)c1OC					0.622	1.38	0.232	0.826	0.586	1.29				
